US20250032590A1, “PARATHYROID HORMONE COMPOUNDS IN THE TREATMENT OF HYPOPARATHYROIDISM” (AMOLYT PHARMA, priority 2023, published 2025)
Where two headings read alike, the source gives them in different places.

Experiments:
PTX mice = test: Serum calcium after single dosing in HP PTX mouse model (Example 1); type: in vivo; details: PTX mice, single dosing; AZP-3601 20, 40 or 80 μg/kg; PTH (1-34) 200 μg/kg
From the text: In FIG. 1, the black line indicates the impact of PTX in mice, resulting in serum calcium levels well below normal levels.

[1] = tested on: normal cynomolgus monkeys; test: Blood calcium after single injection in normal cynomolgus monkeys (Example 5); type: in vivo, cynomolgus monkey; details: single dose 10 nmole/kg (AZP-3601 42.7 μg/kg, PTH (1-84) 95 μg/kg, PTH (1-34) 42 μg/kg), AZP-3601 also 10.7 μg/kg (2.5 nmole/kg)
Method: To further examine how the potent and sustained biological activity induced by AZP-3601 could translate into potential clinical benefit for […] patients, its activity was examined in normal cynomolgus monkeys, a species much closer to humans and the most relevant for first in human dose-selection. Single injections of AZP-3601 were administered to normal cynomolgus monkeys. […] The dissociation between pharmacokinetic profile and pharmacodynamic effect is due to the short circulating half-life of AZP-3601 as opposed to the prolonged signaling caused by AZP-3601's potent interaction with the R^0 conformation of the PTH1 receptor.
In a second study as illustrated in panel B of FIG. 5, monkeys were injected with a single dose of either natural PTH (1-84) at 95 μg/kg, natural PTH (1-34) at 42 μg/kg or AZP-3601 at 42.7 μg/kg, which were equal doses of 10 nmole/kg, adjusted for the molecular weight of the individual compounds. In addition, a lower dose of 10.7 μg AZP-3601/kg (2.5 nmole/kg) was also tested.

hypoparathyroid mice = details: single sc, AZP-3601 10 to 20 nmol/kg, PTH(1-34) at a higher dose; cited from earlier work
TPTX rats [2] = test: Distal femur BMD by qCT in TPTX rats after 14-day treatment at doses that normalize serum calcium (Example 6); type: in vivo, rat
Method: To directly compare the effect of daily subcutaneous injection of AZP-3601 to daily subcutaneous injection and continuous infusion of PTH(1-34), dose levels for each regimen that normalized serum calcium levels in TPTX rats were utilized. These doses corresponded to 50 nmoles/kg/day (205 μg/kg/day) for PTH(1-34) injected daily, 3 nmoles/kg/day (12.3 μg/kg/day) for PTH(1-34) continuously infused, and 1 nmole/kg/day (4.2 μg/kg/day) for AZP-3601 injected daily. After 14 days of treatment, femurs were collected and examined for bone mineral density (BMD) by quantitative computed tomography.

patients with HP [3] = details: cited from earlier work; for urinary calcium excretion: clinical studies; for control of calcium levels: patients with HP
TPTX rats [4] = details: rat, in vivo; cited from earlier work
patients with HP [5] = details: cited from earlier work
TPTX rats [6] = test: Serum calcium and phosphate, 28-day daily sc dosing in HP TPTX rat model (Example 2); type: in vivo; details: once daily sc for 28 days
Method: Thyroid-parathyroidectomized, or TPTX, rats were treated with daily subcutaneous injection of AZP-3601 at doses ranging from 3.8 μg/kg/day to 30.7 μg/kg/day. Treatment was continued for 28 days. […] The increase in calcium accumulated over time (over the first 15 to 21 days), but became more constant thereafter, indicating the development of a steady-state effect (FIG. 2). Due to the cumulative effect, lower doses of AZP-3601 were required to eventually increase blood calcium levels into the normal range as compared to the dose required with a single injection.

TPTX rats [7] = test: BMD (DXA) and bone structure (micro-CT) in TPTX rats after repeated daily dosing (Example 7); type: in vivo, rat; details: once daily sc, AZP-3601 3.8 to 30.7 μg/kg/day, versus vehicle
Method: To examine the effect of repeated dosing with AZP-3601, TPTX rats were treated with daily subcutaneous injections of either vehicle or AZP-3601 with doses ranging from 3.8 to 30.7 μg/kg/day (0.9-7.2 nmole/kg/day). As additional controls, a separate group of TPTX rats received daily injections of natural PTH (1-84), and a group of normal (with intact thyroid and parathyroid glands, or sham) rats were injected with vehicle. […] Both whole femurs and lumbar spine were analyzed using a technique called dual-energy x-ray absorptionametry, or DXA, which measures BMD.

Molecule: PTH(1-34) (SVSEIQLMHNLGKHLNSMERVEWLRKKLQDVHNF) [natural PTH (1-34)]
- effect on serum calcium (PTX mice): transient elevation in serum calcium
- effect on blood calcium, second study [1]: only modestly increased blood calcium
- duration of decreased serum inorganic phosphorus (hypoparathyroid mice): < 4 h
- duration of increased serum calcium (hypoparathyroid mice): < 8 h
- femur BMD by quantitative computed tomography, continuous infusion (TPTX rats [2]; 14 days, 3 nmoles/kg/day continuously infused): significant decrease in BMD
- femur BMD by quantitative computed tomography, daily injection (TPTX rats [2]; 14 days, PTH(1-34) 50 nmoles/kg/day, AZP-3601 1 nmole/kg/day): significant increase in BMD
- dose that normalized serum calcium levels, continuous infusion (TPTX rats [2]; continuously infused): 3 nmol/kg/day
- dose that normalized serum calcium levels, daily subcutaneous injection (TPTX rats [2]; injected daily): 50 nmol/kg/day

Molecule: Natpara™: recombinant natural human PTH ((rh)PTH(1-84)), approved adjunct to calcium and vitamin D in HP
- urinary calcium excretion (patients with HP [3]): failed to demonstrate reduction of urinary calcium excretion
- urinary calcium excretion (patients with HP [3]; listed as (rh)PTH(1-84)): elevated urinary calcium excretion in many subjects
- adverse effects (patients with HP [3]; human, in vivo): adverse effects such as hyper/hypocalcemia and vasoactive events
- half-life (patients with HP [3]; human, in vivo): short half-life
- control of calcium levels (patients with HP [3]): does not control calcium levels for the entire day
- control of calcium levels (patients with HP [3]; listed as (rh)PTH(1-84)): lack of 24-hour control of serum calcium

Molecule: TransCon™PTH: sustained-release, injectable prodrug formulation of native PTH (1-34), Ascendis Pharma A/S
- pharmacokinetic profile (TPTX rats [4]): continuous, non-pulsatile, infusion-like pharmacokinetic profile
- hypercalciuria after treatment (patients with HP [5]; Phase 3 trial, 6 months of treatment): a number of patients are still hypercalciuric
- mean T-scores (patients with HP [5]; human, in vivo): decrease in mean T-scores
- serum calcium levels (patients with HP [5]; human, in vivo): provides stable serum calcium levels
- mean 24-hour urine calcium levels (patients with HP [5]; patients with HP): decrease mean 24-hour urine calcium levels

B1: PTH (1-84) (protein, UniProt P01270 32-115, looked up)
Parathyroid hormone: SVSEIQLMHNLGKHLNSMERVEWLRKKLQDVHNFVALGAPLAPRDAGSQRPRKKEDNVLVESHEKSLGEADKADVNVLTKAKSQ
modifications: Parathyroid hormone
notes: natural PTH (1-84), comparator in rats and monkeys
- effect on blood phosphate levels (TPTX rats [6]): only marginal reductions in blood phosphate levels
- effect on serum/blood calcium levels (TPTX rats [6]; AZP-3601 3.8 to 30.7 μg/kg/day): no persistent increase in blood calcium levels
- BMD of whole femur and lumbar spine by DXA (TPTX rats [7]): statistically significant increase in BMD
- effect on blood calcium, second study [1]: only modestly increased blood calcium
